The structures appear in SMILES notation.

For the assay, the target named is T1, human DGAT1 (Homo sapiens, UniProt O75907).
T1 construct: made in house; host or cells: Sf9 insect cells (baculovirus), membrane fraction
T1 sequence (O75907 1-488): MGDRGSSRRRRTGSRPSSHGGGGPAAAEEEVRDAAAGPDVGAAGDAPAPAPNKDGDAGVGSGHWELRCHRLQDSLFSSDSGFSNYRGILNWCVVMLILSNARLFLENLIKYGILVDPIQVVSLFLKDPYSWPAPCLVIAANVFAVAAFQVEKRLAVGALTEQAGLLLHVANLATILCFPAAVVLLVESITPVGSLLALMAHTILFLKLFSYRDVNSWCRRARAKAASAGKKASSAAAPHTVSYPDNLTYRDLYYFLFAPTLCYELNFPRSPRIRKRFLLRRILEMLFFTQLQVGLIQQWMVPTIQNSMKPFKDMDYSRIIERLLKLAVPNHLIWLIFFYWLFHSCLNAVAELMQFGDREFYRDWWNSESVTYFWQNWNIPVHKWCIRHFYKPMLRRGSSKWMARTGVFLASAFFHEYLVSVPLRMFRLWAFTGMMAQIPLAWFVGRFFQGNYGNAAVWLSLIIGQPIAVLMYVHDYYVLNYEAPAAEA
The experiment in a line: Human Enzyme Assay (DGAT1 inhibition, 14C oleoyl CoA incorporation into triolein). In kind it is biochemical. The settings on record: human DGAT1 expressed in sf9 insect cell membranes; Examples 25 to 59; rounded to 2 decimal places. How it is done:
Briefly, sf9 cells were infected with recombinant baculovirus containing human DGAT1 coding sequences and harvested after 48 h. Cells were lysed by sonication and membranes isolated by centrifuging at 28000 rpm for 1 h at 4° C. on a 41% sucrose gradient. The membrane fraction at the interphase was collected, washed, and stored in liquid nitrogen.
The reaction was started by adding ^14C oleoyl coenzyme A (30 μM final concentration) and incubated at room temperature for 30 minutes. The reaction was stopped by adding 200 μl 2-propanol:heptane 7:1. Radioactive triolein product was separated into the organic phase by adding 300 μl heptane and 100 μl 0.1 M carbonate buffer pH 9.5. DGAT1 activity was quantified by counting aliquots of the upper heptane layer by liquid scintillography.

The term IC50 denotes the concentration at which inhibition is half-maximal. `C[C@@H]1CN(c2ccc(-c3ccccc3Cl)c(C#N)c2)C(=O)c2c(N)ncnc2O1` [Example 59, (R)-4-(4-Amino-8-methyl-5-oxo-7,8-dihydropyrimido[5,4-f][1,4]oxazepin-6(5H)-yl)-2′-chlorobiphenyl-2-carbonitrile] displayed an IC50 of 20 nM.

The values above are taken from patent publication US20110251173A1, “CHEMICAL COMPOUNDS” (AstraZeneca AB, priority 2010, published 2011).
